Measurements from patent publication US8859527B2 (priority 2009, dated 2014).
Like-named read-outs stand apart in the source and are kept apart here.

What was measured:
[1] = test system: human non-small cell lung cancer H460 xenograft tumor; conditions: for Ending body weight / Tumor weight / Tumor-inhibition rate: 21 days
Method: The test article: the inclusion complex of DPT and SBE-β-CD, the content is 5.05%. Preparation Method: it is dissolved in a proper amount of saline after gentle shaking and the concentration is 0.4 mg/ml (which is the test solution for the 8 mg/kg group); other concentrations are prepared by diluting the stock solution of 0.4 mg/ml to the required concentration with physiological saline.
The control article: Etoposide injection produced by Qilu Pharmaceutical Co., Ltd. the batch number is 8060012EV, specification: 5 ml:0.1 g. Preparation Method: Etoposide injection is a kind of transparent sticky liquid and it is diluted with a proper amount of physiological saline and gently shaken and prepared as a homogeneous solution, and the concentration is 1 mg/ml.
Dosage setting: the high dosage group of DPT is 8 mg/kg, the medium dosage group of DPT is 4 mg/kg and the low dosage group of DPT is 2 mg/kg. The dosage for the positive control group of Etoposide injection is 20 mg/kg.
Experimental animals: source, germline and strain: BALB/c nude mice are provided by the Institute of Experimental Animals, Chinese Academy of Medical Sciences. Age: 35-40 days; body weight: 18-24 g; gender: male.
Transplanted tumor: the transplanted tumor for human nonsmall-cell lung cancer H460 in nude mice, and it is established by inoculating the human nonsmall-cell lung cancer H460 cell line hypodermically in the armpit of nude mice. 2×10^6 cells are inoculated.
Human non-small cell lung cancer H460 cell line in exponential phase of growth is prepared as a cell suspension of 2×10^7/ml under sterile conditions, 0.1 ml thereof is inoculated hypodermically in the right armpit of nude mice. The diameters of the transplanted tumors in the nude mice are measured by a sliding caliper, and the animals are randomly divided into different groups when the tumors grow up to the amount of 100 to 300 mm^3. The antitumor efficacy of the test article is dynamically observed by measuring the diameter of the tumor. The diameters of the tumor are determined once for every two days. The administration volume is 0.4 ml/20 g. The mice are killed 21 days after administration, and the tumors are surgically isolated and weighed. The calculation formula for tumor volume (TV) is as follows: TV=½×a×b^2 Wherein a and b represents for the length and the width, respectively.
The relative tumor volume (RTV) is calculated according to the measured results, and the calculation formula is as follows: RTV=Vt/V0. Wherein V0 is the tumor size measured during grouping and drug administration (d0), Vt is the tumor size in every measurements. The evaluation parameter for antitumor activity is the relative tumor growth rate T/C (%) which is calculated according to the formula as follows:
[formula] TRTV: the treatment group RTV; CRTV: the negative control group: RTV.

human lung cancer A-549 = conditions: cited from earlier work
[2] = H460 nude mice, 8 mg/kg iv three times a week, 9 times

Molecule COc1cc([C@@H]2c3cc4c(cc3C[C@H]3COC(=O)[C@@H]32)OCO4)cc(OC)c1OC [DPT, Deoxypodophyllotoxin] has a Tumor volume ([1]; 2 mg/kg iv, 0 d) of 296 ± 117 mm^3, an RTV ([1]; 2 mg/kg iv, 2 d) of 1.396 ± 0.251 and a T/C ([1]; 2 mg/kg iv, 2 d) of 86.85%. For the same molecule, the Tumor volume ([1]; 2 mg/kg iv, 2 d) was 427 ± 190 mm^3, the RTV ([1]; 2 mg/kg iv, 4 d) was 1.827 ± 0.373 and the T/C ([1]; 2 mg/kg iv, 4 d) was 69.97%. For the same molecule, the Tumor volume ([1]; 2 mg/kg iv, 4 d) was 554 ± 234 mm^3, the RTV ([1]; 2 mg/kg iv, 6 d) was 2.391 ± 0.764 and the T/C ([1]; 2 mg/kg iv, 6 d) was 78.07%. It also gave a Tumor volume ([1]; 2 mg/kg iv, 6 d) of 729 ± 364 mm^3, an RTV ([1]; 2 mg/kg iv, 8 d) of 2.819 ± 0.559 and a T/C ([1]; 2 mg/kg iv, 8 d) of 64.20%. It also gave a Tumor volume ([1]; 2 mg/kg iv, 8 d) of 807 ± 294 mm^3, a Gross tumor volume ([1]; 2 mg/kg iv, 10 d) of 1039 ± 316 mm^3 and an RTV ([1]; 2 mg/kg iv, 10 d) of 3.750 ± 1.015. The T/C ([1]; 2 mg/kg iv, 10 d) was 74.96%, the Gross tumor volume ([1]; 2 mg/kg iv, 12 d) was 1424 ± 511 mm^3 and the RTV ([1]; 2 mg/kg iv, 12 d) was 5.122 ± 1.538. For the same molecule, the T/C ([1]; 2 mg/kg iv, 12 d) was 68.96%, the RTV ([1]; 2 mg/kg iv, 14 d) was 6.698 ± 2.532 and the T/C ([1]; 2 mg/kg iv, 14 d) was 78.93%. It also gave a Tumor volume ([1]; 2 mg/kg iv, 14 d) of 1777 ± 386 mm^3, an RTV ([1]; 2 mg/kg iv, 16 d) of 8.626 ± 3.791 and a T/C ([1]; 2 mg/kg iv, 16 d) of 86.49%. It also gave a Tumor volume ([1]; 2 mg/kg iv, 16 d) of 2249 ± 394 mm^3, an RTV ([1]; 2 mg/kg iv, 18 d) of 8.825 ± 3.701 and a T/C ([1]; 2 mg/kg iv, 18 d) of 78.31%. The Tumor volume ([1]; 2 mg/kg iv, 18 d) was 2304 ± 405 mm^3, the RTV ([1]; 2 mg/kg iv, 21 d) was 9.776 ± 3.452 and the T/C ([1]; 2 mg/kg iv, 21 d) was 84.89%. For the same molecule, the Tumor volume ([1]; 2 mg/kg iv, 21 d) was 2591 ± 412 mm^3, the Tumor volume ([1]; 4 mg/kg iv, 0 d) was 272 ± 131 mm^3 and the RTV ([1]; 4 mg/kg iv, 2 d) was 1.324 ± 0.236. It also gave a T/C ([1]; 4 mg/kg iv, 2 d) of 82.37%, a Tumor volume ([1]; 4 mg/kg iv, 2 d) of 381 ± 234 mm^3 and an RTV ([1]; 4 mg/kg iv, 4 d) of 1.823 ± 0.427. It also gave a T/C ([1]; 4 mg/kg iv, 4 d) of 69.82%, a Tumor volume ([1]; 4 mg/kg iv, 4 d) of 521 ± 288 mm^3 and an RTV ([1]; 4 mg/kg iv, 6 d) of 2.465 ± 0.699. For the same molecule, the T/C ([1]; 4 mg/kg iv, 6 d) was 80.49%, the Tumor volume ([1]; 4 mg/kg iv, 6 d) was 729 ± 471 mm^3 and the RTV ([1]; 4 mg/kg iv, 8 d) was 3.331 ± 0.641. For the same molecule, the T/C ([1]; 4 mg/kg iv, 8 d) was 75.85%, the Tumor volume ([1]; 4 mg/kg iv, 8 d) was 906 ± 434 mm^3 and the Gross tumor volume ([1]; 4 mg/kg iv, 10 d) was 1052 ± 475 mm^3. The RTV ([1]; 4 mg/kg iv, 10 d) was 4.041 ± 1.493, the T/C ([1]; 4 mg/kg iv, 10 d) was 80.78% and the Gross tumor volume ([1]; 4 mg/kg iv, 12 d) was 1261 ± 586 mm^3. The RTV ([1]; 4 mg/kg iv, 12 d) was 4.780 ± 1.070, the T/C ([1]; 4 mg/kg iv, 12 d) was 64.35% and the RTV ([1]; 4 mg/kg iv, 14 d) was 5.954 ± 1.425. For the same molecule, the T/C ([1]; 4 mg/kg iv, 14 d) was 70.16%, the Tumor volume ([1]; 4 mg/kg iv, 14 d) was 1530 ± 572 mm^3 and the RTV ([1]; 4 mg/kg iv, 16 d) was 6.870 ± 1.613. The T/C ([1]; 4 mg/kg iv, 16 d) was 68.88%, the Tumor volume ([1]; 4 mg/kg iv, 16 d) was 1740 ± 637 mm^3 and the RTV ([1]; 4 mg/kg iv, 18 d) was 7.697 ± 2.279. The T/C ([1]; 4 mg/kg iv, 18 d) was 68.30%, the Tumor volume ([1]; 4 mg/kg iv, 18 d) was 1891 ± 664 mm^3 and the RTV ([1]; 4 mg/kg iv, 21 d) was 7.832 ± 1.816. It also gave a T/C ([1]; 4 mg/kg iv, 21 d) of 68.01%, a Tumor volume ([1]; 4 mg/kg iv, 21 d) of 1945 ± 586 mm^3 and a Tumor volume ([1]; 8 mg/kg iv, 0 d) of 247 ± 108 mm^3. The RTV ([1]; 8 mg/kg iv, 2 d) was 1.248 ± 0.113, the T/C ([1]; 8 mg/kg iv, 2 d) was 77.61% and the Tumor volume ([1]; 8 mg/kg iv, 2 d) was 313 ± 151 mm^3. It also gave an RTV ([1]; 8 mg/kg iv, 4 d) of 1.721 ± 0.287, a T/C ([1]; 8 mg/kg iv, 4 d) of 65.92% and a Tumor volume ([1]; 8 mg/kg iv, 4 d) of 430 ± 196 mm^3. The RTV ([1]; 8 mg/kg iv, 6 d) was 2.403 ± 0.652, the T/C ([1]; 8 mg/kg iv, 6 d) was 78.45% and the Tumor volume ([1]; 8 mg/kg iv, 6 d) was 559 ± 179 mm^3. The RTV ([1]; 8 mg/kg iv, 8 d) was 2.747 ± 0.766, the T/C ([1]; 8 mg/kg iv, 8 d) was 62.55% and the Tumor volume ([1]; 8 mg/kg iv, 8 d) was 635 ± 183 mm^3. It also gave a Gross tumor volume ([1]; 8 mg/kg iv, 10 d) of 895 ± 252 mm^3, an RTV ([1]; 8 mg/kg iv, 10 d) of 3.853 ± 0.732 and a T/C ([1]; 8 mg/kg iv, 10 d) of 77.03%. It also gave a Gross tumor volume ([1]; 8 mg/kg iv, 12 d) of 1034 ± 246 mm^3, an RTV ([1]; 8 mg/kg iv, 12 d) of 4.548 ± 1.106 and a T/C ([1]; 8 mg/kg iv, 12 d) of 61.23%. For the same molecule, the RTV ([1]; 8 mg/kg iv, 14 d) was 4.845 ± 1.330, the T/C ([1]; 8 mg/kg iv, 14 d) was 57.10% and the Tumor volume ([1]; 8 mg/kg iv, 14 d) was 1122 ± 368 mm^3. It also gave an RTV ([1]; 8 mg/kg iv, 16 d) of 4.955 ± 1.786, a T/C ([1]; 8 mg/kg iv, 16 d) of 49.68% and a Tumor volume ([1]; 8 mg/kg iv, 16 d) of 1132 ± 397 mm^3. For the same molecule, the RTV ([1]; 8 mg/kg iv, 18 d) was 5.609 ± 1.197, the T/C ([1]; 8 mg/kg iv, 18 d) was 49.77% and the Tumor volume ([1]; 8 mg/kg iv, 18 d) was 1292 ± 340 mm^3. It also gave an RTV ([1]; 8 mg/kg iv, 21 d) of 5.721 ± 0.925, a T/C ([1]; 8 mg/kg iv, 21 d) of 49.68% and a Tumor volume ([1]; 8 mg/kg iv, 21 d) of 1375 ± 558 mm^3. The Initial body weight ([1]; H460 nude mice, 2 mg/kg iv group) was 22.50 ± 1.38 g, the Ending body weight ([1]; H460 nude mice, 2 mg/kg iv) was 25.32 ± 2.25 g and the Tumor weight ([1]; H460 nude mice, 2 mg/kg iv) was 2.94 ± 0.68 g. For the same molecule, the Tumor-inhibition rate ([1]; H460 nude mice, 2 mg/kg iv) was 9.49%, the Initial body weight ([1]; H460 nude mice, 4 mg/kg iv group) was 23.33 ± 2.25 g and the Ending body weight ([1]; H460 nude mice, 4 mg/kg iv) was 23.32 ± 2.08 g. For the same molecule, the Tumor weight ([1]; H460 nude mice, 4 mg/kg iv) was 2.52 ± 0.92 g, the Tumor-inhibition rate ([1]; H460 nude mice, 4 mg/kg iv) was 22.56% and the Initial body weight ([1]; H460 nude mice, 8 mg/kg iv group) was 22.33 ± 1.51 g. For the same molecule, the Ending body weight [1, 2] was 22.55 ± 2.50 g, the Tumor weight [1, 2] was 1.85 ± 0.95 g and the Tumor-inhibition rate [1, 2] was 43.08%. The “effects on the body weight of the animals” value ([1]; H460 nude mice, dosage groups of DPT (8, 4, 2 mg/kg iv)) was “no significant inhibition effects on the body weight of the animals” and the “in vitro inhibition effects” value (human lung cancer A-549) was “in vitro inhibition effects”.
